Key:
Carbonic anhydrase 7 = Carbonic anhydrase 7 (Homo sapiens, UniProt P43166)
Carbonic anhydrase 3 = Carbonic anhydrase 3 (Homo sapiens, UniProt P07451)
Carbonic anhydrase 15 = target: T1, Carbonic anhydrase 15 (Mus musculus, UniProt Q99N23)
T1 sequence (Q99N23 whole entry): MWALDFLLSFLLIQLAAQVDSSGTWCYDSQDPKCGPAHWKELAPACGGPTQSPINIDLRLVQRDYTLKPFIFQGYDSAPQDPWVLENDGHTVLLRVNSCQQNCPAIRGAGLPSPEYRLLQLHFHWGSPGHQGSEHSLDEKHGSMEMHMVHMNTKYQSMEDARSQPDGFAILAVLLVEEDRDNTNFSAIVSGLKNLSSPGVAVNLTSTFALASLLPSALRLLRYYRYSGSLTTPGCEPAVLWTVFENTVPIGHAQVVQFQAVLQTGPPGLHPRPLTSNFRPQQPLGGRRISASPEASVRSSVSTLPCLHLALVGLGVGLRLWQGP

Carbonic anhydrase 13 = Carbonic anhydrase 13 (Mus musculus, UniProt Q9D6N1)
Carbonic anhydrase 13, sequence (Q9D6N1 whole entry): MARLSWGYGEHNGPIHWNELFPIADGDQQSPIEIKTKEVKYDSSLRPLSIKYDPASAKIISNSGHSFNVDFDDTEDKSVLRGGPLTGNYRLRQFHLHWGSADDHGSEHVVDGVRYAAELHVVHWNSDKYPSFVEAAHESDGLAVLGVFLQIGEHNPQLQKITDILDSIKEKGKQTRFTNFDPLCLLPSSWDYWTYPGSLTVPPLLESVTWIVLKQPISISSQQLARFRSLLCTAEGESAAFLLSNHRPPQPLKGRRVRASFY

Carbonic anhydrase 2 = Carbonic anhydrase 2 (Homo sapiens, UniProt P00918)
Carbonic anhydrase 12 = Carbonic anhydrase 12 (Homo sapiens, UniProt O43570)
Carbonic anhydrase 12, sequence (O43570 whole entry): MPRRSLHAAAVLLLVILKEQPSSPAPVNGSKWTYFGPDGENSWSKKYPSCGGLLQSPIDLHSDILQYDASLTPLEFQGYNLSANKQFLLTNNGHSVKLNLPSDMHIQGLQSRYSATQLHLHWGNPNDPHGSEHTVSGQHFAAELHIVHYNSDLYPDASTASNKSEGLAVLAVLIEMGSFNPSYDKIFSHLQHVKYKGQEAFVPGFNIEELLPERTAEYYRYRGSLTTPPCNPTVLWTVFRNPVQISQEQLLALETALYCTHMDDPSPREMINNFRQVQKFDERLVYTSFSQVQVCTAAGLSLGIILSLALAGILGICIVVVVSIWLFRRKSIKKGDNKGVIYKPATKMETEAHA

Carbonic anhydrase 1 = Carbonic anhydrase 1 (Homo sapiens, UniProt P00915)
Carbonic anhydrase 1, sequence (P00915 whole entry): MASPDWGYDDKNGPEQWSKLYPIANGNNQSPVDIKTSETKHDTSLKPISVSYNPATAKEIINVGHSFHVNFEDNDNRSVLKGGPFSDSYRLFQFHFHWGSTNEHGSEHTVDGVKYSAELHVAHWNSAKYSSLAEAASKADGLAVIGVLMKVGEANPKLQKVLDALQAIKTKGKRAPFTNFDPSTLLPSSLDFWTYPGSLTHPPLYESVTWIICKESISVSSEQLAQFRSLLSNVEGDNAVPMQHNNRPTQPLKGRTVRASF

[1] = target: Carbonic anhydrase 5A, mitochondrial (Homo sapiens, UniProt P35218)
Carbonic anhydrase 5A, mitochondrial, sequence (P35218 whole entry): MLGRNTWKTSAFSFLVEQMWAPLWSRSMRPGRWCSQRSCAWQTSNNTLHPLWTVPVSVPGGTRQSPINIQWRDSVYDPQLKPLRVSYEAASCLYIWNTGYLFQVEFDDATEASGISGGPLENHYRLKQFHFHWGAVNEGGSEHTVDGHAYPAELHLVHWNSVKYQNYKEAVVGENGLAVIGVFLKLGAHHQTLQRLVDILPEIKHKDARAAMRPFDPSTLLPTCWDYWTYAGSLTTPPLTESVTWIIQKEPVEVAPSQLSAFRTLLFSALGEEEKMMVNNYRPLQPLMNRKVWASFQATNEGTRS

Carbonic anhydrase 14 = Carbonic anhydrase 14 (Homo sapiens, UniProt Q9ULX7)
Carbonic anhydrase 14, sequence (Q9ULX7 whole entry): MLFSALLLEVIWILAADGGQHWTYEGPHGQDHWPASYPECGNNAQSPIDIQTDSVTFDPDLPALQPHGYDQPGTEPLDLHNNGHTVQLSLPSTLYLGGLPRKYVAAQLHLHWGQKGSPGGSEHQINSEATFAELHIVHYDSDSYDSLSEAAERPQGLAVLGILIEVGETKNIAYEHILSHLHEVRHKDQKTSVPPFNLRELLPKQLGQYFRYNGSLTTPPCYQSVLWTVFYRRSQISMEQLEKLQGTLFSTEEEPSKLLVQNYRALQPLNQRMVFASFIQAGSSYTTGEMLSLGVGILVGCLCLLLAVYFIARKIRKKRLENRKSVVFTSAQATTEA

[2] = target: Carbonic anhydrase 5B, mitochondrial (Homo sapiens, UniProt Q9Y2D0)
Carbonic anhydrase 5B, mitochondrial, sequence (Q9Y2D0 whole entry): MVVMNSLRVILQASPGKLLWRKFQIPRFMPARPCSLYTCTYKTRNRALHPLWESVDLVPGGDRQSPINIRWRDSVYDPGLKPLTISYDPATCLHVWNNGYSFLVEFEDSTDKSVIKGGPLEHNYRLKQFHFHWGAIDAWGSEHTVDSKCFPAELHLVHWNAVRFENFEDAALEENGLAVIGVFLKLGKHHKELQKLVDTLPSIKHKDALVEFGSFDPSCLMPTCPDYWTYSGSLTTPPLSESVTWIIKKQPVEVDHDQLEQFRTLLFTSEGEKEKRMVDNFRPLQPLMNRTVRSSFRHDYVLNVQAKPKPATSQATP

Carbonic anhydrase 6 = Carbonic anhydrase 6 (Homo sapiens, UniProt P23280)
Carbonic anhydrase 6, sequence (P23280 whole entry): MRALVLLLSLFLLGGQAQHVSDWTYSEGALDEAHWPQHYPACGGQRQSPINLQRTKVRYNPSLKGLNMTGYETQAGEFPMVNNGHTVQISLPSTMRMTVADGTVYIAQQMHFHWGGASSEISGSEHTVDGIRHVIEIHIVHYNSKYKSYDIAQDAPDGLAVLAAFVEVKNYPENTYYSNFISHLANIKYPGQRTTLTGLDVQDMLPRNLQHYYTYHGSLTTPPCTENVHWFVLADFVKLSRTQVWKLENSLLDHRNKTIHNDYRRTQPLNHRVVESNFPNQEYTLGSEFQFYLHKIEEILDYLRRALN

Carbonic anhydrase 4 = Carbonic anhydrase 4 (Homo sapiens, UniProt P22748)
Carbonic anhydrase 4, sequence (P22748 whole entry): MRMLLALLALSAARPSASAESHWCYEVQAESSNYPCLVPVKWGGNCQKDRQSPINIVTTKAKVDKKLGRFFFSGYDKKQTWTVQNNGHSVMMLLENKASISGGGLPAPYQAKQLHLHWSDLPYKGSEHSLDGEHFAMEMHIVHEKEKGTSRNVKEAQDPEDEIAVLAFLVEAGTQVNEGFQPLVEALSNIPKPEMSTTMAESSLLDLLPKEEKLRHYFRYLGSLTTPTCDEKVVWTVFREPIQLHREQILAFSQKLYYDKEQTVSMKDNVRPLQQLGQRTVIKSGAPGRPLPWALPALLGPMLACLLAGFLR

Carbonic anhydrase 9 = Carbonic anhydrase 9 (Homo sapiens, UniProt Q16790)

Carbonic anhydrase 7, sequence (P43166 whole entry): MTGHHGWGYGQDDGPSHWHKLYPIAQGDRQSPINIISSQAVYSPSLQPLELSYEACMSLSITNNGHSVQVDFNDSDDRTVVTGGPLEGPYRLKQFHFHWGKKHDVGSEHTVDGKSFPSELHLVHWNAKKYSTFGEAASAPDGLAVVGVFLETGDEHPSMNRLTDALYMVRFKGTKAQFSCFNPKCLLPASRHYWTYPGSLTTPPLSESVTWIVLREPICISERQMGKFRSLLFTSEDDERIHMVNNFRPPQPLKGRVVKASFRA
Carbonic anhydrase 3, sequence (P07451 whole entry): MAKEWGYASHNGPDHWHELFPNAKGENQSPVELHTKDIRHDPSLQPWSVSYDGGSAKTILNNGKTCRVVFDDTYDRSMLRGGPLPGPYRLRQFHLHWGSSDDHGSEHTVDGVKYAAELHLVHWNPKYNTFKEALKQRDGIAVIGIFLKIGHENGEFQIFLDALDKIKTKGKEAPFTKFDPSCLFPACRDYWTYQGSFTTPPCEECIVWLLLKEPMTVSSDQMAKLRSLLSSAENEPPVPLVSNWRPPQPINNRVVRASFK

NCCCCCN
Ki (Carbonic anhydrase 7): 0.42 µM | Ki (Carbonic anhydrase 3): 0.5 µM | Ki (Carbonic anhydrase 15): 0.65 µM | Ki (Carbonic anhydrase 13): 0.63 µM | Ki (Carbonic anhydrase 2): 11 µM | Ki (Carbonic anhydrase 12): 0.45 µM | Ki (Carbonic anhydrase 1): 13.3 µM | Ki [1]: 0.044 µM | Ki (Carbonic anhydrase 14): 0.5 µM | Ki [2]: 0.54 µM | Ki (Carbonic anhydrase 6): 0.74 µM | Ki (Carbonic anhydrase 4): 0.052 µM

CC(C)(C)OC(=O)N(CCCCN(CCCNC(=O)C(F)(F)F)C(=O)OC(C)(C)C)CCCNC(=O)C(F)(F)F
Ki (Carbonic anhydrase 7): 107 µM | Ki (Carbonic anhydrase 3): 112 µM | Ki (Carbonic anhydrase 15): > 500 µM | Ki (Carbonic anhydrase 13): 179 µM | Ki (Carbonic anhydrase 2): 107 µM | Ki (Carbonic anhydrase 12): 175 µM | Ki (Carbonic anhydrase 1): > 500 µM | Ki [1]: 125 µM | Ki (Carbonic anhydrase 14): 85 µM | Ki [2]: 103 µM | Ki (Carbonic anhydrase 6): 104 µM | Ki (Carbonic anhydrase 4): 104 µM

NCCNCCCNCCN
Ki (Carbonic anhydrase 7): 58 µM | Ki (Carbonic anhydrase 3): 63 µM | Ki (Carbonic anhydrase 9): 48 µM | Ki (Carbonic anhydrase 15): 66 µM | Ki (Carbonic anhydrase 13): 66 µM | Ki (Carbonic anhydrase 2): 75 µM | Ki (Carbonic anhydrase 12): 68 µM | Ki (Carbonic anhydrase 1): 115 µM | Ki [1]: 50 µM | Ki (Carbonic anhydrase 14): 36 µM | Ki [2]: 59 µM | Ki (Carbonic anhydrase 6): 53 µM | Ki (Carbonic anhydrase 4): 44 µM

CN(C)CCN(C)CCN(C)CCN(C)C
Ki (Carbonic anhydrase 7): 0.73 µM | Ki (Carbonic anhydrase 3): 0.52 µM | Ki (Carbonic anhydrase 9): 0.31 µM | Ki (Carbonic anhydrase 15): 0.76 µM | Ki (Carbonic anhydrase 13): 0.58 µM | Ki (Carbonic anhydrase 2): 11.2 µM | Ki (Carbonic anhydrase 12): 0.52 µM | Ki (Carbonic anhydrase 1): > 500 µM | Ki [1]: 0.047 µM | Ki (Carbonic anhydrase 14): 0.74 µM | Ki [2]: 0.71 µM | Ki (Carbonic anhydrase 6): 0.78 µM | Ki (Carbonic anhydrase 4): 0.053 µM

NCCNc1cccc2ccccc12
Ki (Carbonic anhydrase 7): 0.36 µM | Ki (Carbonic anhydrase 3): 0.42 µM | Ki (Carbonic anhydrase 9): 0.51 µM | Ki (Carbonic anhydrase 15): 0.57 µM | Ki (Carbonic anhydrase 13): 0.62 µM | Ki (Carbonic anhydrase 2): 103 µM | Ki (Carbonic anhydrase 12): 0.38 µM | Ki (Carbonic anhydrase 1): > 500 µM | Ki [1]: 0.048 µM | Ki (Carbonic anhydrase 14): 0.59 µM | Ki [2]: 0.061 µM | Ki (Carbonic anhydrase 6): 0.64 µM | Ki (Carbonic anhydrase 4): 0.058 µM

O=C(NCCCNCCCCNCCCNC(=O)C(F)(F)F)C(F)(F)F
Ki (Carbonic anhydrase 7): 1.09 µM | Ki (Carbonic anhydrase 3): 11.5 µM | Ki (Carbonic anhydrase 9): 11.4 µM | Ki (Carbonic anhydrase 15): 110 µM | Ki (Carbonic anhydrase 13): 12.6 µM | Ki (Carbonic anhydrase 2): 11.3 µM | Ki (Carbonic anhydrase 12): 10.2 µM | Ki (Carbonic anhydrase 1): 136 µM | Ki [1]: 1.26 µM | Ki (Carbonic anhydrase 14): 6.7 µM | Ki [2]: 1.05 µM | Ki (Carbonic anhydrase 6): 1.1 µM | Ki (Carbonic anhydrase 4): 0.116 µM

O=C(NCCNCCCNCCNC(=O)C(F)(F)F)C(F)(F)F
Ki (Carbonic anhydrase 7): 108 µM | Ki (Carbonic anhydrase 3): 96 µM | Ki (Carbonic anhydrase 9): 117 µM | Ki (Carbonic anhydrase 15): 104 µM | Ki (Carbonic anhydrase 13): 131 µM | Ki (Carbonic anhydrase 2): 112 µM | Ki (Carbonic anhydrase 12): 112 µM | Ki (Carbonic anhydrase 1): 122 µM | Ki [1]: 62 µM | Ki (Carbonic anhydrase 14): 125 µM | Ki [2]: 54 µM | Ki (Carbonic anhydrase 6): 156 µM | Ki (Carbonic anhydrase 4): 108 µM

CC(C)(C)OC(=O)N(CCCN(CCNC(=O)C(F)(F)F)C(=O)OC(C)(C)C)CCNC(=O)C(F)(F)F
Ki (Carbonic anhydrase 7): > 500 µM | Ki (Carbonic anhydrase 3): > 500 µM | Ki (Carbonic anhydrase 9): > 500 µM | Ki (Carbonic anhydrase 15): > 500 µM | Ki (Carbonic anhydrase 13): > 500 µM | Ki (Carbonic anhydrase 2): > 500 µM | Ki (Carbonic anhydrase 12): > 500 µM | Ki (Carbonic anhydrase 1): > 500 µM | Ki [1]: 416 µM | Ki (Carbonic anhydrase 14): > 500 µM | Ki [2]: 401 µM | Ki (Carbonic anhydrase 6): > 500 µM | Ki (Carbonic anhydrase 4): 309 µM

O=C(NCCNCCNCCNC(=O)C(F)(F)F)C(F)(F)F
Ki (Carbonic anhydrase 7): > 500 µM | Ki (Carbonic anhydrase 3): > 500 µM | Ki (Carbonic anhydrase 9): > 500 µM | Ki (Carbonic anhydrase 15): > 500 µM | Ki (Carbonic anhydrase 13): > 500 µM | Ki (Carbonic anhydrase 2): > 500 µM | Ki (Carbonic anhydrase 12): > 500 µM | Ki (Carbonic anhydrase 1): > 500 µM | Ki [1]: > 500 µM | Ki (Carbonic anhydrase 14): > 500 µM | Ki [2]: > 500 µM | Ki (Carbonic anhydrase 6): > 500 µM | Ki (Carbonic anhydrase 4): > 500 µM

CC(C)(C)OC(=O)N(CCNC(=O)C(F)(F)F)CCN(CCNC(=O)C(F)(F)F)C(=O)OC(C)(C)C
Ki (Carbonic anhydrase 7): > 500 µM | Ki (Carbonic anhydrase 3): > 500 µM | Ki (Carbonic anhydrase 9): > 500 µM | Ki (Carbonic anhydrase 15): > 500 µM | Ki (Carbonic anhydrase 13): > 500 µM | Ki (Carbonic anhydrase 2): > 500 µM | Ki (Carbonic anhydrase 12): > 500 µM | Ki (Carbonic anhydrase 1): > 500 µM | Ki [1]: > 500 µM | Ki (Carbonic anhydrase 14): > 500 µM | Ki [2]: > 500 µM | Ki (Carbonic anhydrase 6): > 500 µM | Ki (Carbonic anhydrase 4): > 500 µM

CC(=O)NCCNc1cccc2ccccc12
Ki (Carbonic anhydrase 7): 1.24 µM | Ki (Carbonic anhydrase 3): 128 µM | Ki (Carbonic anhydrase 9): 12.2 µM | Ki (Carbonic anhydrase 15): 110 µM | Ki (Carbonic anhydrase 13): 127 µM | Ki (Carbonic anhydrase 2): 121 µM | Ki (Carbonic anhydrase 12): 21.5 µM | Ki (Carbonic anhydrase 1): > 500 µM | Ki [1]: 106 µM | Ki (Carbonic anhydrase 14): 34 µM | Ki [2]: 107 µM | Ki (Carbonic anhydrase 6): 109 µM | Ki (Carbonic anhydrase 4): 12.3 µM

CC(C)(C)OC(=O)N(CCCN)CCCCN(CCCN)C(=O)OC(C)(C)C
Ki (Carbonic anhydrase 7): 108 µM | Ki (Carbonic anhydrase 3): 132 µM | Ki (Carbonic anhydrase 9): 144 µM | Ki (Carbonic anhydrase 15): 236 µM | Ki (Carbonic anhydrase 13): 136 µM | Ki (Carbonic anhydrase 2): 110 µM | Ki (Carbonic anhydrase 12): 165 µM | Ki (Carbonic anhydrase 1): 137 µM | Ki [1]: 131 µM | Ki (Carbonic anhydrase 14): 115 µM | Ki [2]: 107 µM | Ki (Carbonic anhydrase 6): 114 µM | Ki (Carbonic anhydrase 4): 103 µM

NCCCCCCN
Ki (Carbonic anhydrase 7): 0.44 µM | Ki (Carbonic anhydrase 3): 0.6 µM | Ki (Carbonic anhydrase 9): 0.41 µM | Ki (Carbonic anhydrase 15): 0.66 µM | Ki (Carbonic anhydrase 13): 0.69 µM | Ki (Carbonic anhydrase 2): 34.4 µM | Ki (Carbonic anhydrase 12): 0.37 µM | Ki (Carbonic anhydrase 1): 12.6 µM | Ki [1]: 0.61 µM | Ki (Carbonic anhydrase 14): 0.64 µM | Ki [2]: 0.58 µM | Ki (Carbonic anhydrase 6): 0.72 µM | Ki (Carbonic anhydrase 4): 0.45 µM

NCCNCCN
Ki (Carbonic anhydrase 7): 12.1 µM | Ki (Carbonic anhydrase 3): 117 µM | Ki (Carbonic anhydrase 9): 10.6 µM | Ki (Carbonic anhydrase 15): 105 µM | Ki (Carbonic anhydrase 13): 11.5 µM | Ki (Carbonic anhydrase 2): 118 µM | Ki (Carbonic anhydrase 12): 11.4 µM | Ki (Carbonic anhydrase 1): 415 µM | Ki [1]: 110 µM | Ki (Carbonic anhydrase 14): 10.1 µM | Ki [2]: 11 µM | Ki (Carbonic anhydrase 6): 11.5 µM | Ki (Carbonic anhydrase 4): 116 µM

Oc1ccccc1 [PHENOL]
Ki (Carbonic anhydrase 7): > 500 µM | Ki (Carbonic anhydrase 13): > 500 µM | Ki [2]: > 500 µM

NCCCCNCCCN [SPERMIDINE]
Ki (Carbonic anhydrase 7): 1.23 µM | Ki (Carbonic anhydrase 3): 11.5 µM | Ki (Carbonic anhydrase 9): 1.37 µM | Ki (Carbonic anhydrase 15): 10 µM | Ki (Carbonic anhydrase 13): 11.6 µM | Ki (Carbonic anhydrase 2): 1.11 µM | Ki (Carbonic anhydrase 12): 44.1 µM | Ki (Carbonic anhydrase 1): 1.4 µM | Ki [1]: 1.22 µM | Ki (Carbonic anhydrase 14): 1 µM | Ki [2]: 1.44 µM | Ki (Carbonic anhydrase 6): 1.41 µM | Ki (Carbonic anhydrase 4): 0.112 µM

NCCCNCCCCNCCCN [SPERMINE]
Ki (Carbonic anhydrase 7): 0.71 µM | Ki (Carbonic anhydrase 3): 167 µM | Ki (Carbonic anhydrase 9): 13.3 µM | Ki (Carbonic anhydrase 15): 74 µM | Ki (Carbonic anhydrase 13): 22.6 µM | Ki (Carbonic anhydrase 12): 27.6 µM | Ki (Carbonic anhydrase 1): 231 µM | Ki [1]: 0.84 µM | Ki (Carbonic anhydrase 14): 0.86 µM | Ki [2]: 0.83 µM | Ki (Carbonic anhydrase 6): 0.99 µM

NCCNCCNCCN [TRIENTINE]
Ki (Carbonic anhydrase 7): 45 µM | Ki (Carbonic anhydrase 3): 48 µM | Ki (Carbonic anhydrase 9): 39 µM | Ki (Carbonic anhydrase 15): 59 µM | Ki (Carbonic anhydrase 13): 52 µM | Ki (Carbonic anhydrase 2): 64 µM | Ki (Carbonic anhydrase 12): 57 µM | Ki (Carbonic anhydrase 1): 100 µM | Ki [1]: 38 µM | Ki (Carbonic anhydrase 14): 12.1 µM | Ki [2]: 49 µM | Ki (Carbonic anhydrase 6): 43 µM | Ki (Carbonic anhydrase 4): 35 µM

Reference: ChEMBL document CHEMBL1212818, “Polyamines inhibit carbonic anhydrases by anchoring to the zinc-coordinated water molecule” (J Med Chem, 2010)
